Laboratory results: the NIST ThermoML archive (doi:10.1021/je050358g)

Settings: Liquid, vibrating tube

CCCCCCCCCCCCCC[P+](CCCCCC)(CCCCCC)CCCCCC.O=S(=O)([N-]S(=O)(=O)C(F)(F)F)C(F)(F)F
mass density [kg/m3]
Settings	298.15 K	303.25 K	308.15 K	318.27 K	323.33 K	328.39 K	333.43 K
210 kPa	1066.62	1062.61	1058.87	1051.54	1047.84	1044.49	1041.15
540 kPa	1066.84	1062.85	1059.07	1051.79	1048.07	1044.74	1041.43
1000 kPa	1067.13	1063.14	1059.37	1052.1	1048.38	1045.08	1041.76
3000 kPa	1068.44	1064.47	1060.76	1053.49	1049.81	1046.53	1043.19
5010 kPa	1069.7	1065.77	1062.11	1054.88	1051.24	1047.96	1044.61
7500 kPa	1071.3	1067.39	1063.74	1056.54	1052.94	1049.68	1046.4
9990 kPa	1072.85	1068.97	1065.36	1058.2	1054.64	1051.4	1048.13
15010 kPa	1075.88	1072.09	1068.53	1061.47	1057.95	1054.74	1051.51
19990 kPa	1078.82	1075.07	1071.57	1064.6	1061.14	1057.9	1054.8
25010 kPa	1081.69	1078	1074.54	1067.62	1064.22	1061.01	1057.94
29990 kPa	1084.45	1080.84	1077.42	1070.51	1067.21	1064.03	1060.97
35010 kPa	1087.15	1083.56	1080.23	1073.32	1070.14	1066.99	1063.96
40000 kPa	1089.79	1086.26	1082.95	1076.09	1072.99	1069.88	1066.84
45010 kPa	1092.36	1088.87	1085.64	1078.77	1075.75	1072.64	1069.67
50000 kPa	1094.88	1091.44	1088.25	1081.37	1078.47	1075.39	1072.43
55010 kPa	1097.34	1093.95	1090.8	1084	1081.14	1078.08	1075.17
59990 kPa	1099.74	1096.39	1093.3	1086.5	1083.74	1080.67	1077.73
65010 kPa	1102.11	1098.81	1095.75	1088.91	1086.3	1083.24	1080.29

CC(=O)[O-].CCCCCCCCCCCCCC[P+](CCCCCC)(CCCCCC)CCCCCC [trihexyl(tetradecyl)phosphonium acetate]
mass density [kg/m3]
Settings	298.15 K	303.15 K	307.97 K	313.07 K	317.74 K	323.96 K	329.14 K	334.11 K
210 kPa	890.6	887.54	884.7	881.57	878.87	875.25	872.15	869.21
540 kPa	890.77	887.71	884.86	881.77	879.06	875.43	872.35	869.41
1000 kPa	891.01	887.96	885.13	882.02	879.32	875.7	872.61	869.67
3000 kPa	892.04	889.03	886.22	883.14	880.46	876.87	873.78	870.81
5010 kPa	893.09	890.08	887.29	884.26	881.6	878	874.92	871.98
7500 kPa	894.35	891.38	888.6	885.61	882.99	879.4	876.33	873.42
9990 kPa	895.56	892.64	889.9	886.96	884.32	880.77	877.71	874.78
15010 kPa	897.96	895.15	892.45	889.57	886.95	883.42	880.41	877.5
19990 kPa	900.29	897.52	894.88	892.06	889.47	885.99	883	880.11
25010 kPa	902.57	899.86	897.23	894.49	891.91	888.48	885.53	882.67
29990 kPa	904.74	902.08	899.51	896.77	894.26	890.86	887.95	885.12
35010 kPa	906.9	904.28	901.72	899.05	896.54	893.19	890.32	887.57
40020 kPa	908.99	906.41	903.88	901.21	898.76	895.47	892.64	889.93
45010 kPa	911.02	908.45	905.95	903.32	900.88	897.65	894.88	892.22
49990 kPa	912.98	910.44	907.95	905.38	902.96	899.78	897.06	894.45
55000 kPa	914.91	912.4	909.92	907.36	904.98	901.85	899.19	896.66
59990 kPa	916.81	914.31	911.84	909.27	906.93	903.86	901.27	898.81
65010 kPa	918.66	916.16	913.69	911.16	908.84	905.84	903.3	900.91

CCCCCCCCCCCCCC[P+](CCCCCC)(CCCCCC)CCCCCC.[Cl-] [trihexyl(tetradecyl)phosphonium chloride]
mass density [kg/m3]
Settings	298.13 K	303.15 K	308.13 K	313.15 K	318.15 K	323.14 K	328.16 K	333.14 K
190 kPa	891.62	888.51	885.65	882.72	879.82	876.69	873.88	870.88
1000 kPa	892.02	888.97	886.07	883.19	880.27	877.16	874.33	871.36
3000 kPa	893.07	890.03	887.18	884.3	881.41	878.29	875.5	872.51
5010 kPa	894.09	891.06	888.26	885.4	882.52	879.43	876.64	873.64
7500 kPa	895.36	892.35	889.57	886.75	883.89	880.82	878.05	875.05
10000 kPa	896.59	893.6	890.87	888.06	885.24	882.18	879.42	876.42
15010 kPa	899.02	896.1	893.38	890.63	887.86	884.84	882.11	879.11
19990 kPa	901.33	898.48	895.82	893.11	890.37	887.38	884.69	881.72
25010 kPa	903.6	900.78	898.17	895.49	892.81	889.86	887.2	884.25
29990 kPa	905.77	903.01	900.42	897.81	895.15	892.24	889.62	886.71
35010 kPa	907.93	905.17	902.63	900.04	897.43	894.57	891.98	889.11
39990 kPa	910.01	907.28	904.75	902.21	899.63	896.82	894.24	891.46
45010 kPa	912.05	909.34	906.82	904.32	901.78	899.01	896.49	893.73
50000 kPa	914.03	911.34	908.83	906.35	903.87	901.13	898.62	895.96
55000 kPa	915.93	913.27	910.78	908.34	905.9	903.19	900.74	898.14
59990 kPa	917.83	915.17	912.67	–	907.87	905.21	902.79	900.26
65000 kPa	919.63	916.99	914.51	–	909.78	907.16	904.8	902.35
